Reference: patent publication US20260201008A1, “SECRETIN-DERIVED GLP1R SELECTIVE AGONISTS” (GUBRA A/S, priority 2023, published 2026)
Converted amounts (≈) assume the structure as drawn. Like-named read-outs stand apart in the source and are kept apart here. Numbered stars: 1 amine (or outer) side, 2 acyl side, 3 side chain; on linkers, the order of the positions; unused ones are H or OH. Square brackets hold non-standard residues; d marks the D form. Side chains are listed from the residue outwards. Peptide text beside a SMILES is read from it. * marks the point of attachment. C20 diacid = O=C(O)CCCCCCCCCCCCCCCCCCC(=O)*; γGlu = O=C(O)[C@H](CCC(=O)[*:2])N[*:1]; AEEA = NCCOCCOCC(=O)O; Aib = CC(C)(N)C(=O)O

Assays:
[1] = Thioflavin T fibril formation assay of purified peptides; format: physicochemical; conditions: 267 μM, phosphate buffer pH 7.0, 96 h at 40° C.
Experimental: Thioflavin T fibril formation assay: Peptides are dissolved as 267 μM in 50 mM phosphate buffer pH 7.0 for 2 h at room temperature on a rocking table. The samples were then divided into three replicates of 80 μl/well and mixed with 2 μl/well Thioflavin T (ThT) to a final concentration of 4 μM ThT in a black 384 well microplate with a clear bottom (Greiner #781096). The plate is inserted in a CLARIOstar Plus microplate reader (BMG Labtech) and fibril formation is measured as an increase in fluorescence emission at 480 nm (excitation at 450 nm) during 96 h at 40° C. with cycles of 5 min rest and 5 min linear shaking at 700 rpm.

[2] = Solubility of purified peptides; format: physicochemical; conditions: 100 mM phosphate buffer, target pH 7.0, target approximately 10 mg/mL
Experimental: Solubility was tested in the following vehicles: 100 mM phosphate buffer facilitating a target pH of 7.0. Samples were directly dissolved in Mini-UniPrep Syringeless Filter 0.45 μm unit (Whatman). For the desired concentration, such as a concentration of approximately 10 mg/mL, 1050 nmol of peptide was dissolved in 400 μL vehicle. Samples were incubated for at least 1 h at room temperature on a rocking table. The pH was measured and adjusted. Samples were left on the rocking table for an additional hour before a second pH measurement and adjustment. Visual inspection was performed and noted before the filter was pushed. The concentration of peptide in the filtrate was determined using CAD (Charged Aerosol Detection), double determination was done for each sample. The measured concentration was reported in μM. Furthermore, the pH of the filtrate was measured and reported. Peptides with a measured concentration within +/−20% of target concentration are considered fully soluble.

GLP1R = GLP1R (Homo sapiens, UniProt P43220); experiment: hGLP1R potency, cAMP accumulation in CHO-K1 cells stably overexpressing hGLP1R; format: cell-based; design: host or cells: CHO-K1; conditions: for Selectivity: SCTR EC50/GLP1R EC50 ratio
Chain of GLP1R (P43220 24-463): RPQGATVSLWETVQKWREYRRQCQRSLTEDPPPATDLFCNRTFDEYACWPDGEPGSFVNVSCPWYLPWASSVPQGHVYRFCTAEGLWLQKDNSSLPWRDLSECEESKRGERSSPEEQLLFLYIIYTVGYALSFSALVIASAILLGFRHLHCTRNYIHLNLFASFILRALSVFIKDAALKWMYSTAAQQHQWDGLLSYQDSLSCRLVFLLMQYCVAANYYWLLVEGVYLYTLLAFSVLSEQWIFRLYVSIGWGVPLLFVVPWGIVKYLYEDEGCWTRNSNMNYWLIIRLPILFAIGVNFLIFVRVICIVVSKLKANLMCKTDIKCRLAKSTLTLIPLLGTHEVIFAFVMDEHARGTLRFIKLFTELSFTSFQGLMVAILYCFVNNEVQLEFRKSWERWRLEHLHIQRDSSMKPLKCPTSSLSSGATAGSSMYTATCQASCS
Procedure, shortened: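 Potency reflects cAMP accumulation measured by time-resolved fluorescence energy transfer after a 30 min room-temperature stimulation in IBMX-containing (0.5 mM) DPBS with casein. Purified peptides were tested in duplicate over eleven threefold dilutions, and EC50 was obtained from sigmoid concentration-response fitting.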

SCTR = SCTR (Homo sapiens, UniProt P47872); experiment: hSCTR potency, cAMP accumulation in CHO-K1 cells stably overexpressing hSCTR; format: cell-based; design: alternatively Euroscreen ES-712-AF; FAST-0161L; host or cells: CHO-K1
Chain of SCTR (P47872 23-440): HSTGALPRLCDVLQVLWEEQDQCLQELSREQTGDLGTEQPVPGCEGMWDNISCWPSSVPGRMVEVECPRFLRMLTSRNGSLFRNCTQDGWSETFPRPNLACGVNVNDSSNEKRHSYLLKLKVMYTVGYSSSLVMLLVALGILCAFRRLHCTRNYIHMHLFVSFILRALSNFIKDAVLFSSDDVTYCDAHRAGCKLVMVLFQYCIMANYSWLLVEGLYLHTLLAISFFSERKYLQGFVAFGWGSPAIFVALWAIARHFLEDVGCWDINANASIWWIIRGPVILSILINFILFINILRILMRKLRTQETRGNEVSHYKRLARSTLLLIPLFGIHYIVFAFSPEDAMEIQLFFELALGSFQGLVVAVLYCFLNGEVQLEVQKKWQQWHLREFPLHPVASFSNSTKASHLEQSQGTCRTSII
Procedure, shortened: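 Potency reflects cAMP accumulation after 30 min agonist exposure at room temperature in hSCTR-expressing CHO-K1 cells, with 0.5 mM IBMX present to block phosphodiesterase. EC50 was derived by nonlinear regression.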

[3] = Table 2, extended 30 amino acid peptides
[4] = Table 2, extended 30 amino acid peptides, read-out: PEC50 hGLPR1 (converted)
[5] = Table 2, extended 30 amino acid peptides, read-out: pEC50 hSCTR (converted)

| Fibril formation [1] | solubility [2] | Selectivity (GLP1R; purified peptides) | Selectivity (GLP1R; [3]) | EC50 (GLP1R; [4]) | EC50 (SCTR; [5]) | Structure (SMILES) | EC50 (GLP1R; cAMP accumulation, CHO-K1 cells stably overexpressing hGLP1R, read-out: hGLP1R potency (pEC50) (converted)) | SCTR EC50/GLP1R EC50 ratio (GLP1R; selectivity ratio, hSCTR vs hGLP1R, cAMP accumulation in CHO-K1 cells) | EC50 (SCTR; cAMP accumulation, CHO-K1 cells stably overexpressing hSCTR, read-out: hSCTR potency (pEC50) (converted)) | EC50 (SCTR; purified peptides, read-out: hSCTR pEC50 (converted)) |
| --- | --- | --- | --- | --- | --- | --- | --- | --- | --- | --- |
| No | 8300 µg/mL (≈ 2020 µM) | – | – | – | – | CC(C)C[C@H](NC(=O)[C@H](Cc1ccccc1)NC(=O)[C@H](CCCNC(=N)N)NC(=O)[C@H](CCC(N)=O)NC(=O)[C@H](CC(C)C)NC(=O)C(C)(C)NC(=O)[C@H](C)NC(=O)[C@H](CCC(=O)O)NC(=O)[C@H](CCC(=O)O)NC(=O)[C@H](CCCCNC(=O)COCCOCCNC(=O)COCCOCCNC(=O)CC[C@H](NC(=O)CCCCCCCCCCCCCCCCCCC(=O)O)C(=O)O)NC(=O)[C@H](CC(C)C)NC(=O)[C@H](CCC(=O)O)NC(=O)[C@H](CO)NC(=O)[C@@H](NC(=O)[C@H](CC(=O)O)NC(=O)[C@H](CO)NC(=O)[C@@H](NC(=O)[C@H](Cc1ccccc1)NC(=O)[C@@H](NC(=O)CNC(=O)[C@H](CCC(=O)O)NC(=O)C(C)(C)NC(=O)[C@@H](N)Cc1c[nH]cn1)[C@@H](C)O)[C@@H](C)O)C(C)C)C(=O)N[C@@H](CCC(=O)O)C(=O)N[C@@H](Cc1c[nH]cn1)C(=O)N[C@@H](CC(C)C)C(=O)N[C@H](C(=O)N[C@@H](CCC(=O)O)C(=O)N[C@@H](C)C(=O)N[C@@H](C)C(N)=O)C(C)C [compound 210] (H-H[Aib]EGTFTSDVSELK([AEEA-AEEA-γGlu-C20 diacid])EEA[Aib]LQRFLEHLVEAA-NH2) | – | – | – | – |
| No | 9200 µg/mL (≈ 2230 µM) | – | – | – | – | CC(C)C[C@H](NC(=O)[C@H](Cc1ccccc1)NC(=O)[C@H](CCCNC(=N)N)NC(=O)[C@H](CCC(N)=O)NC(=O)[C@H](CC(C)C)NC(=O)C(C)(C)NC(=O)[C@H](C)NC(=O)[C@H](CCC(=O)O)NC(=O)[C@H](CCC(=O)O)NC(=O)[C@H](CCCCNC(=O)COCCOCCNC(=O)COCCOCCNC(=O)CC[C@H](NC(=O)CCCCCCCCCCCCCCCCCCC(=O)O)C(=O)O)NC(=O)[C@H](CC(C)C)NC(=O)[C@H](CCCNC(=N)N)NC(=O)[C@H](CO)NC(=O)[C@@H](NC(=O)[C@H](CC(=O)O)NC(=O)[C@H](CO)NC(=O)[C@@H](NC(=O)[C@H](Cc1ccccc1)NC(=O)[C@@H](NC(=O)CNC(=O)[C@H](CCC(=O)O)NC(=O)C(C)(C)NC(=O)[C@@H](N)Cc1c[nH]cn1)[C@@H](C)O)[C@@H](C)O)C(C)C)C(=O)N[C@@H](CCC(=O)O)C(=O)N[C@@H](Cc1c[nH]cn1)C(=O)N[C@@H](CC(C)C)C(=O)N[C@H](C(=O)N[C@@H](CCC(=O)O)C(=O)N[C@@H](C)C(=O)N[C@@H](C)C(N)=O)C(C)C [compound 208] (H-H[Aib]EGTFTSDVSRLK([AEEA-AEEA-γGlu-C20 diacid])EEA[Aib]LQRFLEHLVEAA-NH2) | – | – | – | – |
| No | 11000 µg/mL (≈ 2660 µM) | 33673 | 34167 | 0.0126 nM | 398 nM | CC(C)C[C@H](NC(=O)[C@H](Cc1ccccc1)NC(=O)[C@H](CCCNC(=N)N)NC(=O)[C@H](CCC(N)=O)NC(=O)[C@H](CC(C)C)NC(=O)C(C)(C)NC(=O)[C@H](C)NC(=O)[C@H](CCC(=O)O)NC(=O)[C@H](CCC(=O)O)NC(=O)[C@H](CCCCNC(=O)COCCOCCNC(=O)COCCOCCNC(=O)CC[C@H](NC(=O)CCCCCCCCCCCCCCCCCCC(=O)O)C(=O)O)NC(=O)[C@H](CC(C)C)NC(=O)[C@H](Cc1ccc(O)cc1)NC(=O)[C@H](CO)NC(=O)[C@@H](NC(=O)[C@H](CC(=O)O)NC(=O)[C@H](CO)NC(=O)[C@@H](NC(=O)[C@H](Cc1ccccc1)NC(=O)[C@@H](NC(=O)CNC(=O)[C@H](CCC(=O)O)NC(=O)C(C)(C)NC(=O)[C@@H](N)Cc1c[nH]cn1)[C@@H](C)O)[C@@H](C)O)C(C)C)C(=O)N[C@@H](CCC(=O)O)C(=O)N[C@@H](Cc1c[nH]cn1)C(=O)N[C@@H](CC(C)C)C(=O)N[C@H](C(=O)N[C@@H](CCC(=O)O)C(=O)N[C@@H](C)C(=O)N[C@@H](C)C(N)=O)C(C)C [compound 209] (H-H[Aib]EGTFTSDVSYLK([AEEA-AEEA-γGlu-C20 diacid])EEA[Aib]LQRFLEHLVEAA-NH2) | – | – | – | – |
| No | 8200 µg/mL (≈ 2000 µM) | 63571 | 54706 | 0.0158 nM | 1000 nM | CC(C)C[C@H](NC(=O)[C@H](CC(C)C)NC(=O)[C@H](Cc1ccc(O)cc1)NC(=O)[C@H](CO)NC(=O)[C@@H](NC(=O)[C@H](CC(=O)O)NC(=O)[C@H](CO)NC(=O)[C@@H](NC(=O)[C@H](Cc1ccccc1)NC(=O)[C@@H](NC(=O)CNC(=O)[C@H](CCC(=O)O)NC(=O)C(C)(C)NC(=O)[C@@H](N)Cc1c[nH]cn1)[C@@H](C)O)[C@@H](C)O)C(C)C)C(=O)N[C@@H](CCC(=O)O)C(=O)N[C@@H](CCC(=O)O)C(=O)N[C@@H](C)C(=O)NC(C)(C)C(=O)N[C@@H](CC(C)C)C(=O)N[C@@H](CCC(N)=O)C(=O)N[C@@H](CCCNC(=N)N)C(=O)N[C@@H](Cc1ccccc1)C(=O)N[C@@H](CC(C)C)C(=O)N[C@@H](CCC(=O)O)C(=O)N[C@@H](CCCCNC(=O)COCCOCCNC(=O)COCCOCCNC(=O)CC[C@H](NC(=O)CCCCCCCCCCCCCCCCCCC(=O)O)C(=O)O)C(=O)N[C@@H](CC(C)C)C(=O)N[C@H](C(=O)N[C@@H](CCC(=O)O)C(=O)N[C@@H](C)C(=O)N[C@@H](C)C(N)=O)C(C)C [compound 213] (H-H[Aib]EGTFTSDVSYLLEEA[Aib]LQRFLEK([AEEA-AEEA-γGlu-C20 diacid])LVEAA-NH2) | – | – | – | – |
| No | 8400 µg/mL (≈ 2050 µM) | 2857 | 2864 | 0.02 nM | 63.1 nM | CC(C)C[C@H](NC(=O)[C@H](CC(C)C)NC(=O)[C@H](CCCNC(=N)N)NC(=O)[C@H](CO)NC(=O)[C@@H](NC(=O)[C@H](CC(=O)O)NC(=O)[C@H](CO)NC(=O)[C@@H](NC(=O)[C@H](Cc1ccccc1)NC(=O)[C@@H](NC(=O)CNC(=O)[C@H](CCC(=O)O)NC(=O)C(C)(C)NC(=O)[C@@H](N)Cc1c[nH]cn1)[C@@H](C)O)[C@@H](C)O)C(C)C)C(=O)N[C@@H](CCC(=O)O)C(=O)N[C@@H](CCC(=O)O)C(=O)N[C@@H](C)C(=O)NC(C)(C)C(=O)N[C@@H](CC(C)C)C(=O)N[C@@H](CCC(N)=O)C(=O)N[C@@H](CCCNC(=N)N)C(=O)N[C@@H](Cc1ccccc1)C(=O)N[C@@H](CC(C)C)C(=O)N[C@@H](CCC(=O)O)C(=O)N[C@@H](CCCCNC(=O)COCCOCCNC(=O)COCCOCCNC(=O)CC[C@H](NC(=O)CCCCCCCCCCCCCCCCCCC(=O)O)C(=O)O)C(=O)N[C@@H](CC(C)C)C(=O)N[C@H](C(=O)N[C@@H](CCC(=O)O)C(=O)N[C@@H](C)C(=O)N[C@@H](C)C(N)=O)C(C)C [compound 212] (H-H[Aib]EGTFTSDVSRLLEEA[Aib]LQRFLEK([AEEA-AEEA-γGlu-C20 diacid])LVEAA-NH2) | – | – | – | – |

| Structure (SMILES) | Fibril formation [1] | solubility [2] | Selectivity (GLP1R; purified peptides) | Selectivity (GLP1R; [3]) | EC50 (GLP1R; [4]) | EC50 (SCTR; [5]) | EC50 (GLP1R; cAMP accumulation, CHO-K1 cells stably overexpressing hGLP1R, read-out: hGLP1R potency (pEC50) (converted)) | SCTR EC50/GLP1R EC50 ratio (GLP1R; selectivity ratio, hSCTR vs hGLP1R, cAMP accumulation in CHO-K1 cells) | EC50 (SCTR; cAMP accumulation, CHO-K1 cells stably overexpressing hSCTR, read-out: hSCTR potency (pEC50) (converted)) | EC50 (SCTR; purified peptides, read-out: hSCTR pEC50 (converted)) |
| --- | --- | --- | --- | --- | --- | --- | --- | --- | --- | --- |
| CC(C)C[C@H](NC(=O)[C@H](Cc1ccccc1)NC(=O)[C@H](CCCNC(=N)N)NC(=O)[C@H](CCC(N)=O)NC(=O)[C@H](CC(C)C)NC(=O)C(C)(C)NC(=O)[C@H](C)NC(=O)[C@H](CCC(=O)O)NC(=O)[C@H](CCC(=O)O)NC(=O)[C@H](CCCCNC(=O)COCCOCCNC(=O)COCCOCCNC(=O)CC[C@H](NC(=O)CCCCCCCCCCCCCCCCCCC(=O)O)C(=O)O)NC(=O)[C@H](CC(C)C)NC(=O)[C@H](Cc1ccc(O)cc1)NC(=O)[C@H](CO)NC(=O)[C@@H](NC(=O)[C@H](CC(=O)O)NC(=O)[C@H](CO)NC(=O)[C@@H](NC(=O)[C@H](Cc1ccccc1)NC(=O)[C@@H](NC(=O)CNC(=O)[C@H](CCC(=O)O)NC(=O)C(C)(C)NC(=O)[C@@H](N)Cc1c[nH]cn1)[C@@H](C)O)[C@@H](C)O)C(C)C)C(=O)N[C@@H](CCC(=O)O)C(=O)N[C@@H](Cc1c[nH]cn1)C(=O)N[C@@H](CC(C)C)C(=O)N[C@H](C(N)=O)C(C)C [compound 203] (H-H[Aib]EGTFTSDVSYLK([AEEA-AEEA-γGlu-C20 diacid])EEA[Aib]LQRFLEHLV-NH2) | No | 9800 µg/mL (≈ 2540 µM) | 11176 | – | – | – | 0.02 nM | 10000 | 200 nM | 200 nM |
